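The concentration for 50% growth inhibition is given as GI50. At the TGI there is no net growth.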
How the values were obtained:
Experiment in all cases: NCI-60 cell line screen, 384-well format
[1] = tested on: 786-0 renal
[2] = tested on: A498 renal
[3] = tested on: A549 NSCLC
[4] = tested on: ACHN renal
[5] = tested on: BT-549 breast
[6] = tested on: CAKI-1 renal
[7] = tested on: CCRF-CEM leukemia
[8] = tested on: COLO 205 colon
[9] = tested on: DU-145 prostate
[10] = tested on: EKVX NSCLC
[11] = tested on: HCT-15 colon
[12] = tested on: HL-60(TB) leukemia
[13] = tested on: HOP-62 NSCLC
[14] = tested on: HOP-92 NSCLC
[15] = tested on: HS 578T breast
[16] = tested on: HT29 colon
[17] = tested on: IGROV1 ovarian
[18] = tested on: KM12 colon
[19] = tested on: M14 melanoma
[20] = tested on: MALME-3M melanoma
[21] = tested on: MCF7 breast
[22] = tested on: MDA-MB-231 breast
[23] = tested on: MDA-MB-435 melanoma
[24] = tested on: MDA-MB-468 breast
[25] = tested on: MOLT-4 leukemia
[26] = tested on: NCI-H226 lung
[27] = tested on: NCI-H23 lung
[28] = tested on: NCI-H322M lung
[29] = tested on: NCI-H460 NSCLC
[30] = tested on: NCI-H522 lung
[31] = tested on: NCI/ADR-RES ovarian
[32] = tested on: OVCAR-3 ovarian
[33] = tested on: OVCAR-4 ovarian
[34] = tested on: OVCAR-5 ovarian
[35] = tested on: OVCAR-8 ovarian
[36] = tested on: PC-3 prostate
[37] = tested on: RPMI-8226 leukemia
[38] = tested on: RXF 393 renal
[39] = tested on: SF-268 CNS
[40] = tested on: SF-295 CNS
[41] = tested on: SF-539 CNS
[42] = tested on: SK-MEL-2 melanoma
[43] = tested on: SK-MEL-28 melanoma
[44] = tested on: SK-MEL-5 melanoma
[45] = tested on: SK-OV-3 ovarian
[46] = tested on: SN12C renal
[47] = tested on: SNB-19 CNS
[48] = tested on: SNB-75 CNS
[49] = tested on: SR leukemia
[50] = tested on: SW-620 colon
[51] = tested on: T-47D breast
[52] = tested on: TK-10 renal
[53] = tested on: U251 glioblastoma
[54] = tested on: UACC-257 melanoma
[55] = tested on: UACC-62 melanoma

**Q.** Which GI50 [1] does the source give for `COc1ccc(-c2ccc(/C=C/C(=O)NO)cc2)cc1` here?
**A.** The GI50 was 1140 nM.

**Q.** And the TGI [1]?
**A.** The TGI was 3650 nM.

**Q.** What about the GI50 [2] of the same compound?
**A.** The GI50 was 1860 nM.

**Q.** And the TGI [2]?
**A.** The TGI was 11200 nM.

**Q.** And the GI50 [3]?
**A.** Its GI50 is 431 nM.

**Q.** And the TGI [3]?
**A.** The TGI was 11600 nM.

**Q.** And the GI50 [4]?
**A.** The GI50 was 2100 nM.

**Q.** And the TGI [4]?
**A.** Its TGI is 4230 nM.

**Q.** What about the GI50 [5] of the same compound?
**A.** Its GI50 is 624 nM.

**Q.** What about the TGI [5] of the same compound?
**A.** Its TGI is 3510 nM.

**Q.** And the GI50 [6]?
**A.** Its GI50 is 1750 nM.

**Q.** And the TGI [6]?
**A.** The TGI was 5590 nM.

**Q.** And the GI50 [7]?
**A.** The GI50 was 128 nM.

**Q.** What about the TGI [7] of the same compound?
**A.** Its TGI is 258 nM.

**Q.** What about the GI50 [8] of the same compound?
**A.** The GI50 was 3310 nM.

**Q.** And the TGI [8]?
**A.** The TGI was 6560 nM.

**Q.** What about the GI50 [9] of the same compound?
**A.** The GI50 was 1300 nM.

**Q.** And the TGI [9]?
**A.** Its TGI is 3540 nM.

**Q.** And the GI50 [10]?
**A.** The GI50 was 2280 nM.

**Q.** What about the TGI [10] of the same compound?
**A.** Its TGI is 11400 nM.

**Q.** And the GI50 [11]?
**A.** Its GI50 is 332 nM.

**Q.** What about the TGI [11] of the same compound?
**A.** Its TGI is 2730 nM.

**Q.** And the GI50 [12]?
**A.** Its GI50 is 255 nM.

**Q.** And the TGI [12]?
**A.** The TGI was 524 nM.

**Q.** And the GI50 [13]?
**A.** The GI50 was 760 nM.

**Q.** What about the TGI [13] of the same compound?
**A.** Its TGI is 2580 nM.

**Q.** What about the GI50 [14] of the same compound?
**A.** The GI50 was 986 nM.

**Q.** And the TGI [14]?
**A.** Its TGI is 4190 nM.

**Q.** What about the GI50 [15] of the same compound?
**A.** The GI50 was 2850 nM.

**Q.** And the TGI [15]?
**A.** The TGI was 9630 nM.

**Q.** And the GI50 [16]?
**A.** Its GI50 is 2720 nM.

**Q.** What about the TGI [16] of the same compound?
**A.** Its TGI is 16300 nM.

**Q.** And the GI50 [17]?
**A.** Its GI50 is 1680 nM.

**Q.** What about the TGI [17] of the same compound?
**A.** Its TGI is 5020 nM.

**Q.** And the GI50 [18]?
**A.** The GI50 was 1510 nM.

**Q.** What about the TGI [18] of the same compound?
**A.** Its TGI is 16000 nM.

**Q.** What about the GI50 [19] of the same compound?
**A.** Its GI50 is 1450 nM.

**Q.** And the TGI [19]?
**A.** Its TGI is 3280 nM.

**Q.** What about the GI50 [20] of the same compound?
**A.** The GI50 was 1180 nM.

**Q.** And the TGI [20]?
**A.** Its TGI is 3920 nM.

**Q.** And the GI50 [21]?
**A.** Its GI50 is 1410 nM.

**Q.** And the TGI [21]?
**A.** Its TGI is 4280 nM.

**Q.** And the GI50 [22]?
**A.** The GI50 was 391 nM.

**Q.** And the TGI [22]?
**A.** The TGI was 1730 nM.

**Q.** And the GI50 [23]?
**A.** Its GI50 is 4260 nM.

**Q.** What about the TGI [23] of the same compound?
**A.** The TGI was 64700 nM.

**Q.** And the GI50 [24]?
**A.** Its GI50 is 292 nM.

**Q.** And the TGI [24]?
**A.** The TGI was 578 nM.

**Q.** What about the GI50 [25] of the same compound?
**A.** The GI50 was 166 nM.

**Q.** What about the TGI [25] of the same compound?
**A.** The TGI was 329 nM.

**Q.** What about the GI50 [26] of the same compound?
**A.** Its GI50 is 457 nM.

**Q.** And the TGI [26]?
**A.** The TGI was 2410 nM.

**Q.** And the GI50 [27]?
**A.** Its GI50 is 728 nM.

**Q.** And the TGI [27]?
**A.** Its TGI is 2340 nM.

**Q.** What about the GI50 [28] of the same compound?
**A.** The GI50 was 3100 nM.

**Q.** What about the TGI [28] of the same compound?
**A.** Its TGI is 33300 nM.

**Q.** And the GI50 [29]?
**A.** Its GI50 is 626 nM.

**Q.** And the TGI [29]?
**A.** The TGI was 2500 nM.

**Q.** What about the GI50 [30] of the same compound?
**A.** The GI50 was 373 nM.

**Q.** What about the TGI [30] of the same compound?
**A.** Its TGI is 1480 nM.

**Q.** What about the GI50 [31] of the same compound?
**A.** The GI50 was 527 nM.

**Q.** What about the TGI [31] of the same compound?
**A.** Its TGI is 1620 nM.

**Q.** What about the GI50 [32] of the same compound?
**A.** The GI50 was 237 nM.

**Q.** And the TGI [32]?
**A.** Its TGI is 531 nM.

**Q.** And the GI50 [33]?
**A.** Its GI50 is 284 nM.

**Q.** What about the TGI [33] of the same compound?
**A.** The TGI was 12200 nM.

**Q.** What about the GI50 [34] of the same compound?
**A.** The GI50 was 1940 nM.

**Q.** And the TGI [34]?
**A.** The TGI was 5930 nM.

**Q.** And the GI50 [35]?
**A.** Its GI50 is 562 nM.

**Q.** And the TGI [35]?
**A.** The TGI was 2120 nM.

**Q.** What about the GI50 [36] of the same compound?
**A.** Its GI50 is 818 nM.

**Q.** What about the TGI [36] of the same compound?
**A.** The TGI was 9740 nM.

**Q.** What about the GI50 [37] of the same compound?
**A.** Its GI50 is 262 nM.

**Q.** What about the TGI [37] of the same compound?
**A.** Its TGI is 548 nM.

**Q.** And the GI50 [38]?
**A.** The GI50 was 298 nM.

**Q.** What about the TGI [38] of the same compound?
**A.** The TGI was 1130 nM.

**Q.** And the GI50 [39]?
**A.** The GI50 was 967 nM.

**Q.** What about the TGI [39] of the same compound?
**A.** The TGI was 2870 nM.

**Q.** And the GI50 [40]?
**A.** The GI50 was 2840 nM.

**Q.** What about the TGI [40] of the same compound?
**A.** The TGI was 14200 nM.

**Q.** And the GI50 [41]?
**A.** Its GI50 is 525 nM.

**Q.** And the TGI [41]?
**A.** Its TGI is 2200 nM.

**Q.** What about the GI50 [42] of the same compound?
**A.** Its GI50 is 472 nM.

**Q.** And the TGI [42]?
**A.** Its TGI is 1140 nM.

**Q.** What about the GI50 [43] of the same compound?
**A.** The GI50 was 2600 nM.

**Q.** And the TGI [43]?
**A.** Its TGI is 7200 nM.

**Q.** And the GI50 [44]?
**A.** Its GI50 is 421 nM.

**Q.** And the TGI [44]?
**A.** Its TGI is 1580 nM.

**Q.** And the GI50 [45]?
**A.** The GI50 was 349 nM.

**Q.** What about the TGI [45] of the same compound?
**A.** The TGI was 1560 nM.

**Q.** And the GI50 [46]?
**A.** The GI50 was 1290 nM.

**Q.** And the TGI [46]?
**A.** The TGI was 3810 nM.

**Q.** What about the GI50 [47] of the same compound?
**A.** The GI50 was 2520 nM.

**Q.** What about the TGI [47] of the same compound?
**A.** The TGI was 11900 nM.

**Q.** And the GI50 [48]?
**A.** Its GI50 is 466 nM.

**Q.** And the TGI [48]?
**A.** Its TGI is 4640 nM.

**Q.** And the GI50 [49]?
**A.** The GI50 was 195 nM.

**Q.** What about the TGI [49] of the same compound?
**A.** The TGI was 368 nM.

**Q.** What about the GI50 [50] of the same compound?
**A.** Its GI50 is 1820 nM.

**Q.** What about the TGI [50] of the same compound?
**A.** The TGI was 10200 nM.

**Q.** And the GI50 [51]?
**A.** Its GI50 is 1400 nM.

**Q.** What about the TGI [51] of the same compound?
**A.** The TGI was 5260 nM.

**Q.** And the GI50 [52]?
**A.** The GI50 was 1820 nM.

**Q.** And the TGI [52]?
**A.** Its TGI is 7230 nM.

**Q.** And the GI50 [53]?
**A.** Its GI50 is 1190 nM.

**Q.** And the TGI [53]?
**A.** The TGI was 2850 nM.

**Q.** What about the GI50 [54] of the same compound?
**A.** The GI50 was 1380 nM.

**Q.** And the TGI [54]?
**A.** The TGI was 8800 nM.

**Q.** What about the GI50 [55] of the same compound?
**A.** Its GI50 is 1930 nM.

**Q.** And the TGI [55]?
**A.** The TGI was 4350 nM.
